Data reported in US20260355192A1, “PROPHYLACTIC OR THERAPEUTIC AGENT FOR PERIOSTIN-MEDIATED DISEASE AND PRURITUS ASSOCIATED THEREWITH” (SAGA UNIVERSITY, priority 2022, published 2026).

B1: nemolizumab: anti-IL-31 receptor antibody (antibody, chains of the INN, looked up)
heavy: QVQLVQSGAEVKKPGASVKVSCKASGYTFTGYIMNWVRQAPGQGLEWMGLINPYNGGTDYNPQFQDRVTITADKSTSTAYMELSSLRSEDTAVYYCARDGYDDGPYTLETWGQGTLVTVSSASTKGPSVFPLAPSSKSTSGGTAALGCLVKDYFPEPVTVSWNSGALTSGVHTFPAVLQSSGLYSLSSVVTVPSSNFGTQTYTCNVDHKPSNTKVDKTVERKSCVECPPCPAPPVAGPSVFLFPPKPKDTLMISRTPEVTCVVVDVSQEDPEVQFNWYVDGVEVHNAKTKPREEQFNSTFRVVSVLTVVHQDWLNGKEYKCKVSNKGLPAPIEKTISKTKGQPREPQVYTLPPSQEEMTKNQVSLTCLVKGFYPSDIAVEWESNGQPENNYKTTPPMLDSDGSFFLYSKLTVDKSRWQEGNVFSCSVMHEALHNHYTQKSLSLSP
light: DIQMTQSPSSLSASVGDRVTITCQASEDIYSFVAWYQQKPGKAPKLLIYNAQTEAQGVPSRFSGSGSGTDFTLTISSLQPEDFATYYCQHHYDSPLTFGGGTKVEIKRTVAAPSVFIFPPSDEQLKSGTASVVCLLNNFYPREAKVQWKVDNALQSGNSQESVTEQDSKDSTYSLSSTLTLSKADYEKHKVYACEVTHQGLSSPVTKSFNRGEC

Experiments:
[1] = tested on: scratching behaviors in FADS mice; experiment: Scratching behaviors in FADS mice upon single systemic administration of αvβ3 integrin inhibitors; type: in vivo, mouse (FADS, Nestin-cre/Ikk2ff); conditions: for % Change from baseline in the number of scratchings (mean ± standard error): 53.7 μmol/kg i.p., single, 60 minutes after administration vs before administration; for grade of effect on % change from the baseline in the number of scratchings: single i.p., 53.7 μmol/kg (GLPG-0187 5.37 μmol/kg), paired t-test
Description: Nestin-cre transgenic mice were crossed with IKK2^ff mice to prepare Nestin-cre/Ikk2^ff mice specifically lacking IKK2 in their facial skin fibroblasts (Nunomura S, et al. J Invest Dermatol. 139:1274-1283, 2019). These mice inevitably develop atopic dermatitis-like rash limited to the face and intense itchy symptoms, and were therefore designated as Facial Atopic Dermatitis with Scratching (FADS) mice. […] For evaluation of the prophylactic or therapeutic agent of the present invention, FADS mice at 3 to 4 weeks of age or older were used because of showing spontaneous scratching behaviors. It should be noted that in this Example section, the above compound of formula (I) (more particularly “CP4715”) was used as the prophylactic or therapeutic agent of the present invention.
FADS mice were acclimated for 20 minutes to the environment of a recording cage, and then recorded with a video camera. The recorded videos were replayed, and scratching behaviors were counted assuming that hind paw scratching to the face and the subsequent movement of toe licking or paw lowering to the ground were regarded as one cycle of scratching behavior.
Prior to the administration of the above αvβ3 integrin inhibitors, FADS mice were recorded for 60 minutes with a video camera and then allowed to rest for 15 minutes. The compounds except for GLPG-0187 were each dissolved at 89.5 mM in a diluent (physiological saline containing 50% DMSO and 89.5 mM HCL), from which an amount corresponding to 53.7 μmol/kg per mouse was then taken and diluted with 0.3 mL of PBS, and then administered intraperitoneally. […] Mice administered with 0.3 mL of PBS containing an equal amount of the diluent as calculated based on the body weight were used as a control group.
The mice were recorded for 60 minutes with a video camera immediately after administration of the above αvβ3 integrin inhibitors. The number of scratchings before administration was used as a baseline, and % change from the baseline after administration was calculated for each compound. For statistical analysis, paired t-test was used. A P-value of less than 0.05 was considered to be statistically significant. The effect of an inhibitor whose mean change from the baseline was −65% or more at a P-value of less than 0.01 was expressed as “++”; the effect of an inhibitor whose mean change from the baseline was −60% or less at a P-value of less than 0.05 was expressed as “+”; and the effect of an inhibitor whose mean change from the baseline was −60% or less at a P-value of 0.05 or higher was expressed as “−.”

integrin αvβ3 [2] = target: T1, integrin αvβ3 (Homo sapiens, UniProt P05106+P06756); experiment: Inhibition of periostin-dependent adhesion of SW480 cells expressing integrin αvβ3; type: cell-based; conditions: immobilized recombinant human periostin, FIG. 6; for cell adhesion inhibitory effect (in words): SW480 cells expressing integrin αvβ3; for IC50: SW480 cells expressing human integrin β3, compounds at 0.001-1 μM, read-out: 50% inhibition concentration (IC50 value) for cell adhesion inhibitory activity
T1 construct: SW480 cells, a human colon cancer cell line not expressing integrin β3; expressed in transfected cells; host or cells: SW480 cells (human colon cancer) stably expressing human integrin β3
Procedure: For use in cell adhesion experiments, SW480 cells, a human colon cancer cell line not expressing integrin β3, were genetically engineered to stably express human integrin β3 (Nanri Y, et al. Am J Respir Cell Mol Biol. 62:204-216, 2020). The compounds shown in Table 1 were examined for their inhibitory activity against adhesion between integrin αvβ3 and periostin according to the following procedures. First, a 96-well plate was treated with 10 μg/mL recombinant human periostin (Bio-Techne) at 4 °C for 16 hours to immobilize periostin. The SW480 cells expressing integrin αvβ3 (5×10^4 cells) were reacted at room temperature for 15 minutes with the above compounds at 0.001, 0.01, 0.1 and 1 μM in serum-free DMEM (Dulbecco's Modified Eagle Medium) containing 0.5% bovine serum albumin and 0.25 mM MnCl2. A group receiving no compound was used as a control. The reacted cell suspensions were added to separate wells of the above human periostin-immobilized plate, and the plate was centrifuged at 10×g for 5 minutes and then cultured at 37 °C for 60 minutes. Then, after the adhered cells were washed to remove unbound cells, the adhered cells were fixed with 1% formaldehyde and stained with 0.5% crystal violet. The fixed and stained cells were solubilized with 0.2% Triton X-100 and measured for absorbance at 595 nm. The absorbance of the control (i.e., the group receiving no compound) was set to 0% inhibition. […] Cell adhesion in this test system is periostin-dependent, and a compound inhibiting this cell adhesion can be referred to as a periostin receptor antagonist.

integrin αvβ3 [3] = conditions: cited from earlier work
IL-31 receptor = conditions: Kabashima K, et al. N Engl J Med. 383:141-150, 2020; cited from earlier work

T1 sequence (P06756 31-889 limits assumed): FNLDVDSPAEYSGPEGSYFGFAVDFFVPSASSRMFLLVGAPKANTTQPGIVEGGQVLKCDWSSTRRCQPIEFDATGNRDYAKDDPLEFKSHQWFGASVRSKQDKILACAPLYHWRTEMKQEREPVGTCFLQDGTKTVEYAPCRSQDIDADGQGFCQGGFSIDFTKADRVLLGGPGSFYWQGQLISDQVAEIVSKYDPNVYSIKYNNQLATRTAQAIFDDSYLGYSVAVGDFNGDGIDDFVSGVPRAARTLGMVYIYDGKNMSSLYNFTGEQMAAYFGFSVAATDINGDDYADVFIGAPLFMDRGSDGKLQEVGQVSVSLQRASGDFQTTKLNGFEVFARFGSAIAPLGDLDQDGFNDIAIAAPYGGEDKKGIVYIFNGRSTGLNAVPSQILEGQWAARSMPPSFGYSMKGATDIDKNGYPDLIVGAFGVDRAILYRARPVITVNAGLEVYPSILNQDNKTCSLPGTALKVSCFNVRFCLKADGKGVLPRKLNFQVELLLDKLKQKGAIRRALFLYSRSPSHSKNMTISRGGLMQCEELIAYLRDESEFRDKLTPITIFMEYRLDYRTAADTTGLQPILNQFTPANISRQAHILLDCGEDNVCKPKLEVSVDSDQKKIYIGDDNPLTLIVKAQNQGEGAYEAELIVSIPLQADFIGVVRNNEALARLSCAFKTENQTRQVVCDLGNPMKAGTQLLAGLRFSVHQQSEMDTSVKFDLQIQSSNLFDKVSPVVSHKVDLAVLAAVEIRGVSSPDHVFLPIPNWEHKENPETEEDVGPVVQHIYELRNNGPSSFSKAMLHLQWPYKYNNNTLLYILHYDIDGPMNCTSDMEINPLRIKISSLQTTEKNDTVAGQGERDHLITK
T1 sequence (P06756 891-1048 partner limits assumed): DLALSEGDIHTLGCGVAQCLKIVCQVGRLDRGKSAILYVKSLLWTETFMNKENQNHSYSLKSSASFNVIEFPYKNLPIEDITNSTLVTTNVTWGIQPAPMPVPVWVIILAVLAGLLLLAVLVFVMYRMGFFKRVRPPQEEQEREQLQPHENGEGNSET
T1 sequence (P05106 27-788): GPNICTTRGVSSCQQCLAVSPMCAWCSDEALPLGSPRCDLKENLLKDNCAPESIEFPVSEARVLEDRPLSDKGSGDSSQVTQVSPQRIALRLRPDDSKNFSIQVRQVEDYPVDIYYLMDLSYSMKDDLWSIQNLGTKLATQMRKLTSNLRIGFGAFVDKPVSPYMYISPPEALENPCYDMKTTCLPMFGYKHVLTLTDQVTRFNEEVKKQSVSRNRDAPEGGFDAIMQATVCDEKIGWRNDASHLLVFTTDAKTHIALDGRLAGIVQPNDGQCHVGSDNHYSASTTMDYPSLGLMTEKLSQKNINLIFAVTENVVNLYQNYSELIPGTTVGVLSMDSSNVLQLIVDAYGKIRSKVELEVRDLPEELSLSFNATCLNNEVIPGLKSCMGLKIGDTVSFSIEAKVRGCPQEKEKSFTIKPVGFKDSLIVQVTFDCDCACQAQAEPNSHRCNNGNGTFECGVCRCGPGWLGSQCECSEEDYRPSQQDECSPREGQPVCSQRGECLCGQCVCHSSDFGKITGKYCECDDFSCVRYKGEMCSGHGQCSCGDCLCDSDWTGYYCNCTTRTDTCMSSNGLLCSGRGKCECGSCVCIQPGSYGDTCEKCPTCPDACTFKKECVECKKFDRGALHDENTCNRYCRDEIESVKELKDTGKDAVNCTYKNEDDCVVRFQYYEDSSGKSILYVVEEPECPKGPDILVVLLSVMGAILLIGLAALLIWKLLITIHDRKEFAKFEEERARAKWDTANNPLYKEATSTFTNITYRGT

| Molecule | % Change from baseline in the number of scratchings (mean ± standard error) [1] | grade of effect on % change from the baseline in the number of scratchings [1] | cell adhesion inhibitory effect (in words) (integrin αvβ3 [2]) | inhibition of binding between integrin αvβ3 and vitronectin (integrin αvβ3 [3]) | IC50 (integrin αvβ3 [2]) [nM] | pruritus (IL-31 receptor) | skin inflammation (IL-31 receptor) |
| --- | --- | --- | --- | --- | --- | --- | --- |
| N=C(N)Nc1cccc(C(=O)NCC(=O)NC(CC(=O)O)c2cc(Cl)cc(Cl)c2)c1 (centres unmarked) [SC-68448, 3-(3,5-Dichlorophenyl)-3-(2-(3-guanidinobenzamido)acetamido)propanoic acid] | −83.8 ± 7.7% | ++ (mean change from the baseline was −65% or more at a P-value of less than 0.01) | moderate | inhibit binding |  |  |  |
| O=C(O)C[C@H]1Cc2ccc(OCCCNc3ccccn3)cc2CN(CC(F)(F)F)C1=O [SB-267268 enantiomer, (R)-2-(3-oxo-8-(3-(pyridin-2-ylamino)propoxy)-2-(2,2,2-trifluoroethyl)-2,3,4,5-tetrahydro-1H-benzo[c]azepin-4-yl)acetic acid] | +45.5 ± 28.8% |  |  |  | ≥ 1000 |  |  |
| CC(C)COC(=O)N[C@@H](CCC(=O)N1CCN(c2cccc(NC3=NCC(F)CN3)c2)CC1)C(=O)O (stereo partly drawn) [BS-1417, (2S)-5-(4-(3-((5-fluoro-1,4,5,6-tetrahydropyrimidin-2-yl)amino)phenyl)piperazin-1-yl)-2-((isobutoxycarbonyl)amino)-5-oxopentanoic acid] | −43.3 ± 11.9% | + (mean change from the baseline was −60% or less at a P-value of less than 0.05) |  |  | ≥ 1000 |  |  |
| CC(C)[C@H]1C(=O)N[C@@H](CCCNC(=N)N)C(=O)NCC(=O)N[C@@H](CC(=O)O)C(=O)N[C@H](Cc2ccccc2)C(=O)N1C [Cilengitide, 2-((2S,5R,8S,11S)-5-benzyl-11-(3-guanidinopropyl)-8-isopropyl-7-methyl-3,6,9,12,15-pentaoxo-1,4,7,10,13-pentaazacyclopentadecan-2-yl)acetic acid] | −31.7 ± 17.8% |  |  |  |  |  |  |
| CNc1cccc(CCOc2ccc3c(c2)CN(CC(F)(F)F)C(=O)[C@H](CC(=O)O)C3)n1 [SB-273005, (S)-2-(8-(2-(6-(methylamino)pyridin-2-yl)ethoxy)-3-oxo-2-(2,2,2-trifluoroethyl)-2,3,4,5-tetrahydro-1H-benzo[c]azepin-4-yl)acetic acid] | −33.0 ± 11.6% | + (mean change from the baseline was −60% or less at a P-value of less than 0.05) | moderate |  | ≤ 20 |  |  |
| O=C(NC[C@H](NS(=O)(=O)c1ccccc1)C(=O)O)c1ccc(N2CCC(NC3=NCCCN3)CC2)c(F)c1 [CP derivative 2, (S)-3-(3-fluoro-4-(4-((1,4,5,6-tetrahydropyrimidin-2-yl)amino)piperidin-1-yl)benzamido)-2-(phenylsulfonamido)propanoic acid] | −30.2 ± 18.6% | − (mean change from the baseline was −60% or less at a P-value of 0.05 or higher) | high |  | ≤ 1 |  |  |
| O=C(NC[C@H](NS(=O)(=O)c1cccs1)C(=O)O)c1ccc(N2CCC[C@H](NC3=NCCCN3)C2)cc1 [CP derivative 9, (S)-3-(4-((S)-3-((1,4,5,6-tetrahydropyrimidin-2-yl)amino)piperidin-1-yl)benzamido)-2-(thiophene-2-sulfonamido)propanoic acid] | −24.5 ± 19.9% | − (mean change from the baseline was −60% or less at a P-value of 0.05 or higher) | high |  | ≤ 1 |  |  |
| O=C(O)C[C@@H]1Cc2ccc(OCCCNc3ccccn3)cc2CN(CC(F)(F)F)C1=O [SB-267268, (S)-2-(3-oxo-8-(3-(pyridin-2-ylamino)propoxy)-2-(2,2,2-trifluoroethyl)-2,3,4,5-tetrahydro-1H-benzo[c]azepin-4-yl)acetic acid] | −5.5 ± 13.4% | − (mean change from the baseline was −60% or less at a P-value of 0.05 or higher) | moderate |  | ≤ 20 |  |  |
| Cc1cc(C)c(S(=O)(=O)N[C@@H](CNC(=O)c2ccc3c(cnn3CCCNc3ncc[nH]3)c2)C(=O)O)c(C)c1 [SM-256, (S)-3-(1-(3-((1H-imidazol-2-yl)amino)propyl)-1H-indazole-5-carboxamido)-2-((2,4,6-trimethylphenyl)sulfonamido)propanoic acid] | −22.5 ± 19.6% |  | low |  | ≤ 100 |  |  |
| O=C(NC[C@H](NS(=O)(=O)c1ccccc1)C(=O)O)c1ccc(N2CCC[C@H](NC3=NCCCN3)C2)cc1F [CP derivative 7, (S)-3-(2-fluoro-4-((S)-3-((1,4,5,6-tetrahydropyrimidin-2-yl)amino)piperidin-1-yl)benzamido)-2-(phenylsulfonamido)propanoic acid] | −52.0 ± 26.6% | − (mean change from the baseline was −60% or less at a P-value of 0.05 or higher) | high |  | ≤ 1 |  |  |
| B1 |  |  |  |  |  | improve pruritus | improving effect on skin inflammation |
